Converted amounts (≈) assume the structure as drawn. Like-named read-outs stand apart in the source and are kept apart here. Positions of bridges follow the written chain, without caps; N, C: chain ends. Non-standard residues stand in square brackets, D forms with d. Residues, ends and D or L forms follow the SMILES beside them. *: point of attachment. Octanoyl(7-Me) = CC(C)CCCCCC(=O)*; dOrn = NCCC[C@@H](N)C(=O)O; Orn = NCCC[C@H](N)C(=O)O; Dap = NC[C@H](N)C(=O)O
How the values were obtained:
A. baumannii 2018-006 = type: cell-based; conditions: 2018-006, 16 h
Protocol: (§1) Minimum inhibitory concentrations (MICs) were determined by broth microdilution according to CLSI guidelines in triplicate. Blood agar plates were inoculated with glycerol stocks of E. coli ATCC 25922, E. coli MCR-1 (clinical isolate from Utrecht Medical Centre, NL), E. coli EQAS MCR-2 (clinical isolate from Wageningen University and Research, NL), K. pneumoniae ATCC 11228, K. pneumoniae ATCC 13883, K. pneumonia 2048 (clnical isolate from Vrije Universiteit Amsterdam Medical Centre, NL), K. pneumonia JS-123 (clinical isolate from Utrecht Medical […]
(§2) (clinical isolate from Rijksinstituut voor Volksgezondheid en Milieu, NL), A. baumannii MDR (clinical isolate from Vrije Universiteit Amsterdam Medical Centre, NL), P. aeruginosa ATCC 27853, P. aeruginosa PAO1, P. aeruginosa NRZ-03961 (Reference strain from Das Nationale Referenzzentrum für gramnegative Krankenhauserreger, DE), P. aeruginosa M-120 (clinical isolate from Leiden University Medical Centre, NL) and S. aureus USA300 (clinical isolate from Texas Children's Hospital, USA). E. coli 25922 MCR1 was grown on LB agar supplemented with kanamycin. The inoculated agar plates were then incubated for 16 h at 37°C . Individually grown colonies were subsequently used to inoculate 3 mL aliquots of TSB that were then incubated at 37°C with shaking at 220 rpm. In parallel, the lipopeptide antibiotics to be assessed were serially diluted with Mueller-Hinton broth (MHB) in polypropylene 96-well plates (50 µL in each well).
(§3) Once the OD600 of the bacterial suspensions reached 0.5, the bacteria were diluted with MHB (final concentration 2 × 10^5 CFU mL−1) and added to the microplates containing the test compounds (50 µL to each well, final volume: 100 µL). The well-plates were sealed with an adhesive membrane and after 16 h of incubation at 37°C with shaking at 220 rpm the wells were visually inspected for bacterial growth. MIC values reported are based on three technical replicates and defined as the lowest concentration of the compound that prevented visible growth of bacteria. […]

A. baumannii ATCC 17961 = type: cell-based; conditions: ATCC 17961, 16 h
Protocol: as §1, §2, §3

A. baumannii ATCC 17978 = type: cell-based; conditions: ATCC 17978, 16 h
Protocol: as §1, §2, §3

E. coli ATCC 25922 [1] = type: cell-based
Protocol: as §1, §2, §3

K. pneumoniae 2048 = type: cell-based; conditions: 2048, 16 h
Protocol: as §1, §2, §3

K. pneumoniae ATCC 11228 = type: cell-based; conditions: ATCC 11228, 16 h
Protocol: as §1, §2, §3

K. pneumoniae ATCC 13883 = type: cell-based; conditions: ATCC 13883, 16 h
Protocol: as §1, §2, §3

K. pneumoniae JS-123 = type: cell-based; conditions: JS-123, 16 h
Protocol: as §1, §2, §3

P. aeruginosa ATCC 27853 = type: cell-based; conditions: ATCC 27853, 16 h
Protocol: as §1, §2, §3

P. aeruginosa M-120 = type: cell-based; conditions: M-120, 16 h
Protocol: as §1, §2, §3

P. aeruginosa NRZ-03961 = type: cell-based; conditions: NRZ-03961, 16 h
Protocol: as §1, §2, §3

P. aeruginosa PAO1 = type: cell-based; conditions: PAO1, 16 h
Protocol: as §1, §2, §3

S. aureus USA300 = type: cell-based; conditions: USA300, 16 h
Protocol: as §1, §2, §3

Gram-negative bacteria = experiment: MIC comparison across the bacterial panel of Table 1; type: cell-based; conditions: enantiomer versus natural product, strains of Table 1
Protocol: as §1
as §2, with “Individually grown colonies were subsequently used to inoculate 3 mL aliquots of TSB that were then incubated at 37°C with shaking at 220 rpm.” left out, “well). […]” for “well).”

E. coli ATCC 25922 [2] = experiment: LPS antagonization assay; type: cell-based; conditions: E. coli ATCC 25922, MHB supplemented with 1 mg/mL LPS from E. coli O55:B5, 16 h 37 °C
Protocol: Figure S6. LPS antagonization assay. A blood agar plate was inoculated with a glycerol stock of E. coli ATCC 25922. The […]
inoculated agar plate was then incubated for 16 h at 37 °C. An individually grown colony was subsequently used to inoculate 3 mL […]
of TSB that was then incubated at 37 °C with shaking at 220 rpm. In parallel, the compounds to be assessed were serially diluted […]
with Mueller-Hinton broth (MHB) in polypropylene 96-well plates (50 µL in each well). Once the OD600 of the bacterial […]
suspensions reached 0.5, the bacteria were diluted with MHB (final concentration 2 × 10^5 CFU mL−1). The media were then either […]
supplemented with 1 mg/mL of LPS (lipopolysaccharides from E. coli O55:B5, Sigma-Aldrich) or added directly to the microplates […]
containing the test compounds (50 µL to each well, final volume: 100 µL). The well-plates were sealed with an adhesive membrane and after 16 h of incubation at 37°C with shaking at 220 rpm. The w ells were visually inspected for bacterial growth.
(1 picture or pasted object on this page, not shown here)

[3] = In vivo tolerability study; conditions: naïve ICR mice, subcutaneous, 40 mg kg^−1 q8h over 24 h (total daily dose 120 mg kg^−1)
Protocol: (§4) In vivo tolerability and efficacy studies
(§5) Ethical Issues. Animal experiments were performed under UK Home Office Licences P89653310 (tolerability and PK) and PA67E0BAA (thigh efficacy), with local ethical committee clearance.
(§6) Animal Strain. Mice used in these studies were supplied by Charles River (Margate UK) and were specific pathogen free. The strain of mice used was ICR (also known as CD1 Mice) which is a well characterized outbred murine strain. Mice (male) were 11-15 g on receipt and were allowed to acclimatise for at least 7 days.
(§7) Animal Housing. Mice were housed in sterilised individual ventilated cages exposing the mice at all times to HEPA filtered sterile air. Mice had free access to food and water and had aspen chip bedding (changed at least once weekly). The room temperature was 22°C +/ - 1°C, with a relative humidity of 60% and maximum background noise of 56 dB. Mice were exposed to 12 h light/dark […]
Test compounds. Compound 6 was dissolved in water for injection in which it formed a clear colourless solution. Polymyxin B was dissolved in saline for injection to produce a clear colourless […]
Tolerability study. The tolerability of compound 6 was assessed in the same mouse strain used for the efficacy studies. Compound 6 was administered via subcutaneous administration route at 3 8-h […]
The mice used in the tolerability study were naïve and were not immunosuppressed or infected. […]

E. coli ATCC 25922 [4] = experiment: Neutropenic mouse thigh infection efficacy study; type: in vivo, mice (ICR); conditions: neutropenic mice
Protocol: as §4, §5, §6, §7
Test compounds. Compound 6 was dissolved in water for injection in which it formed a clear […]
colourless solution. […]
Compound 6 was administered via subcutaneous administration route at 3 8-h […]
The mice used in the tolerability study were naïve and were not immunosuppressed or infected.
Efficacy study. The in vivo efficacy of compound 6 was assessed in a mouse thigh abscess model where both thighs of each mouse were infected with E. coli ATCC 25922
Immunosuppression. […]
Endpoints. One h and 20.5 (planned 25) h post-infection, the clinical condition of all animals was assessed prior to humane euthanasia using pentobarbitone overdose, and the thighs were removed and weighed. Thigh samples were homogenized in 3mL ice cold sterile PBS; the homogenates were quantitatively cultured onto CLED agar and incubated at 37°C for 18 - 24 h before colonies were […]
Data analysis. The data from the culture burdens were analysed using appropriate non-parametric statistical models (Kruskal-Wallis using Conover-Inman to make all pairwise comparisons between groups) with StatsDirect software v. […]

Row | SMILES | MIC (A. baumannii 2018-006) [µg/mL] | MIC (A. baumannii ATCC 17961) [µg/mL] | MIC (A. baumannii ATCC 17978) [µg/mL] | MIC (E. coli ATCC 25922 [1]; ATCC 25922, 16 h) [µg/mL] | MIC (K. pneumoniae 2048) [µg/mL] | MIC (K. pneumoniae ATCC 11228) [µg/mL] | MIC (K. pneumoniae ATCC 13883) [µg/mL] | MIC (K. pneumoniae JS-123) [µg/mL] | MIC (P. aeruginosa ATCC 27853) [µg/mL] | MIC (P. aeruginosa M-120) [µg/mL] | MIC (P. aeruginosa NRZ-03961) [µg/mL] | MIC (P. aeruginosa PAO1) [µg/mL] | MIC (S. aureus USA300) [µg/mL] | MIC values higher than the natural products (Gram-negative bacteria) | decrease of antibacterial activity in the presence of LPS (E. coli ATCC 25922 [2]) [fold] | MIC (E. coli ATCC 25922 [1]; Ec ATCC 25922, broth microdilution (CLSI), MHB, 2 × 10^5 CFU/mL, 16 h 37 °C, visual read-out, three technical replicates) [µg/mL] | tolerability [3] | tolerability ([3]; listed as 6) | dose response of thigh burden (E. coli ATCC 25922 [4]; E. coli ATCC 25922 thigh infection, 10, 20 and 40 mg kg^−1 SC q8h) | reduction in bacterial load relative to the untreated group (E. coli ATCC 25922 [4]; thigh infection with E. coli ATCC 25922, 40 mg kg^−1 SC q8h starting 1 h post-infection, thigh burden cfu g^−1 at 20.5 h) [log]
1 | CC[C@@H](C)[C@H]1NC(=O)[C@H](NC(=O)[C@@H](Cc2c[nH]c3ccccc23)NC(=O)[C@H](CCCN)NC(=O)CNC(=O)[C@@H](CCCN)NC(=O)[C@H](CCCN)NC(=O)[C@H](Cc2c[nH]c3ccccc23)NC(=O)[C@H](Cc2ccc(O)cc2)NC(=O)[C@H](CO)NC(=O)CCCCCC(C)C)[C@H](C)OC(=O)CNC(=O)CNC(=O)[C@@H](CC(N)=O)NC1=O (single isomer, unassigned) [ent-Lat (ent-2), ent-laterocidine] | 4 (≈ 2.49 µM) | 4 (≈ 2.49 µM) | 4 (≈ 2.49 µM) | 8 (≈ 4.98 µM) | 16 (≈ 9.97 µM) | 16 (≈ 9.97 µM) | 16 (≈ 9.97 µM) | 4 (≈ 2.49 µM) | 8 (≈ 4.98 µM) | 16 (≈ 9.97 µM) | 16 (≈ 9.97 µM) | 16 (≈ 9.97 µM) | 64 (≈ 39.9 µM) | 8- to 32 fold | ≥ 8 | – | – | – | – | –
2 | CC[C@H](C)[C@@H]1NC(=O)[C@@H](NC(=O)[C@H](Cc2c[nH]c3ccccc23)NC(=O)[C@@H](CCCN)NC(=O)CNC(=O)[C@H](CCCN)NC(=O)[C@@H](CCCN)NC(=O)[C@@H](Cc2c[nH]c3ccccc23)NC(=O)[C@@H](Cc2ccc(O)cc2)NC(=O)[C@@H](CO)NC(=O)CCCCCC(C)C)CNC(=O)CNC(=O)CNC(=O)[C@H](CC(N)=O)NC1=O [Dap9-Lat (6), Dap9-laterocidamide] ({Octanoyl(7-Me)}-[dS][dY][dW][dOrn][Orn]G[dOrn]W[Dap]INGG; lactam 9-C) | 4 (≈ 2.52 µM) | 4 (≈ 2.52 µM) | 4 (≈ 2.52 µM) | 1 (≈ 0.629 µM) | 2 (≈ 1.26 µM) | 2 (≈ 1.26 µM) | 2 (≈ 1.26 µM) | 0.5 (≈ 0.314 µM) | 0.5 to 1 | 1 to 2 | 2 (≈ 1.26 µM) | 1 to 2 | >64 | – | – | 1.0 (≈ 0.629 µM) | well tolerated | good tolerability | clear dose response | ~5
3 | CC[C@H](C)[C@@H]1NC(=O)[C@@H](NC(=O)[C@H](Cc2c[nH]c3ccccc23)NC(=O)[C@@H](CCCN)NC(=O)CNC(=O)[C@H](CCCN)NC(=O)[C@@H](CCCN)NC(=O)[C@@H](Cc2c[nH]c3ccccc23)NC(=O)[C@@H](Cc2ccc(O)cc2)NC(=O)[C@@H](CO)NC(=O)CCCCCC(C)C)[C@@H](C)OC(=O)CNC(=O)CNC(=O)[C@H](CC(N)=O)NC1=O [Lat (2), laterocidine] | 2 (≈ 1.25 µM) | 0.5 (≈ 0.312 µM) | 0.5 (≈ 0.312 µM) | 1 (≈ 0.623 µM) | 2 (≈ 1.25 µM) | 2 (≈ 1.25 µM) | 1 (≈ 0.623 µM) | 0.5 (≈ 0.312 µM) | ≤0.5 | 1 (≈ 0.623 µM) | 1 to 2 | 1 (≈ 0.623 µM) | 64 (≈ 39.9 µM) | – | ≥ 8 | – | – | – | – | –
